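All cell lines were grown in 96-well plates and treated with compound for 48 hours. The concentration for full growth arrest is given as TGI.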
Legend:
Assay in all cases: inhibition of tumour cell growth, NCI panel, 48 h
A498 renal = system: A498 renal
MCF7 breast = system: MCF7 breast
CAKI-1 renal = system: CAKI-1 renal
HL-60(TB) leukemia = system: HL-60(TB) leukemia
SR leukemia = system: SR leukemia
SK-MEL-5 melanoma = system: SK-MEL-5 melanoma
SN12C renal = system: SN12C renal
K-562 leukemia = system: K-562 leukemia
OVCAR-5 ovarian = system: OVCAR-5 ovarian
TK-10 renal = system: TK-10 renal
UO-31 renal = system: UO-31 renal
SK-OV-3 ovarian = system: SK-OV-3 ovarian
PC-3 prostate = system: PC-3 prostate
RXF 393 renal = system: RXF 393 renal
HS 578T breast = system: HS 578T breast
HOP-92 NSCLC = system: HOP-92 NSCLC
OVCAR-8 ovarian = system: OVCAR-8 ovarian
HCC-2998 colon = system: HCC-2998 colon
M14 melanoma = system: M14 melanoma
MDA-MB-435 = system: MDA-MB-435
DU-145 prostate = system: DU-145 prostate
SK-MEL-28 melanoma = system: SK-MEL-28 melanoma
MALME-3M melanoma = system: MALME-3M melanoma
NCI/ADR-RES ovarian = system: NCI/ADR-RES ovarian
LOX IMVI melanoma = system: LOX IMVI melanoma
RPMI-8226 leukemia = system: RPMI-8226 leukemia
SNB-75 CNS = system: SNB-75 CNS
NCI-H23 lung = system: NCI-H23 lung
NCI-H460 lung = system: NCI-H460 lung
MDA-N = system: MDA-N
T-47D breast = system: T-47D breast
UACC-62 melanoma = system: UACC-62 melanoma
SW-620 colon = system: SW-620 colon
OVCAR-3 ovarian = system: OVCAR-3 ovarian
COLO 205 colon = system: COLO 205 colon
NCI-H226 lung = system: NCI-H226 lung
SF-539 CNS = system: SF-539 CNS
OVCAR-4 ovarian = system: OVCAR-4 ovarian
SF-268 CNS = system: SF-268 CNS
HCT-15 colon = system: HCT-15 colon
SK-MEL-2 melanoma = system: SK-MEL-2 melanoma
UACC-257 melanoma = system: UACC-257 melanoma
NCI-H522 lung = system: NCI-H522 lung
HT29 colon = system: HT29 colon
786-0 renal = system: 786-0 renal
U251 CNS = system: U251 CNS
EKVX NSCLC = system: EKVX NSCLC
SNB-19 CNS = system: SNB-19 CNS
IGROV1 ovarian = system: IGROV1 ovarian
MDA-MB-231 breast = system: MDA-MB-231 breast
HOP-62 NSCLC = system: HOP-62 NSCLC
KM12 colon = system: KM12 colon
ACHN renal = system: ACHN renal
BT-549 breast = system: BT-549 breast
SF-295 CNS = system: SF-295 CNS
HCT-116 colon = system: HCT-116 colon
A549 NSCLC = system: A549 NSCLC
MOLT-4 leukemia = system: MOLT-4 leukemia

SMILES: O=C(Oc1ccc(S(=O)(=O)F)cc1F)c1ccccc1Cl
- TGI (A498 renal): > 100 µM
- TGI (MCF7 breast): 83.9 µM
- TGI (CAKI-1 renal): > 100 µM
- TGI (HL-60(TB) leukemia): > 100 µM
- TGI (SR leukemia): 55.8 µM
- TGI (SK-MEL-5 melanoma): 31.1 µM
- TGI (SN12C renal): > 100 µM
- TGI (K-562 leukemia): > 100 µM
- TGI (OVCAR-5 ovarian): > 100 µM
- TGI (TK-10 renal): > 100 µM
- TGI (UO-31 renal): 40 µM
- TGI (SK-OV-3 ovarian): > 100 µM
- TGI (PC-3 prostate): > 100 µM
- TGI (RXF 393 renal): 64.5 µM
- TGI (HS 578T breast): 65.2 µM
- TGI (HOP-92 NSCLC): 65.1 µM
- TGI (OVCAR-8 ovarian): > 100 µM
- TGI (HCC-2998 colon): > 100 µM
- TGI (M14 melanoma): > 100 µM
- TGI (MDA-MB-435): 74.6 µM
- TGI (DU-145 prostate): > 100 µM
- TGI (SK-MEL-28 melanoma): > 100 µM
- TGI (MALME-3M melanoma): 86.4 µM
- TGI (NCI/ADR-RES ovarian): > 100 µM
- TGI (LOX IMVI melanoma): > 100 µM
- TGI (RPMI-8226 leukemia): 45.6 µM
- TGI (SNB-75 CNS): 74.2 µM
- TGI (NCI-H23 lung): 53.9 µM
- TGI (NCI-H460 lung): 70.5 µM
- TGI (MDA-N): > 100 µM
- TGI (T-47D breast): 84.3 µM
- TGI (UACC-62 melanoma): > 100 µM
- TGI (SW-620 colon): > 100 µM
- TGI (OVCAR-3 ovarian): 75.6 µM
- TGI (COLO 205 colon): 44.6 µM
- TGI (NCI-H226 lung): > 100 µM
- TGI (SF-539 CNS): 62.1 µM
- TGI (OVCAR-4 ovarian): 94.5 µM
- TGI (SF-268 CNS): > 100 µM
- TGI (HCT-15 colon): > 100 µM
- TGI (SK-MEL-2 melanoma): > 100 µM
- TGI (UACC-257 melanoma): 78.8 µM
- TGI (NCI-H522 lung): 42 µM
- TGI (HT29 colon): 72.9 µM
- TGI (786-0 renal): > 100 µM
- TGI (U251 CNS): > 100 µM
- TGI (EKVX NSCLC): 72.3 µM
- TGI (SNB-19 CNS): 87.2 µM
- TGI (IGROV1 ovarian): > 100 µM
- TGI (MDA-MB-231 breast): 58 µM
- TGI (HOP-62 NSCLC): > 100 µM
- TGI (KM12 colon): 60.9 µM
- TGI (ACHN renal): > 100 µM
- TGI (BT-549 breast): > 100 µM
- TGI (SF-295 CNS): 89.4 µM
- TGI (HCT-116 colon): > 100 µM
- TGI (A549 NSCLC): > 100 µM

SMILES: OC1(c2ccccc2)c2ccccc2NC2=NCCN21 (stereo not drawn)
- TGI (A498 renal): > 100 µM
- TGI (MCF7 breast): > 100 µM
- TGI (CAKI-1 renal): > 100 µM
- TGI (HL-60(TB) leukemia): > 100 µM
- TGI (SR leukemia): 45 µM
- TGI (SK-MEL-5 melanoma): > 100 µM
- TGI (SN12C renal): > 100 µM
- TGI (OVCAR-5 ovarian): > 100 µM
- TGI (TK-10 renal): > 100 µM
- TGI (UO-31 renal): > 100 µM
- TGI (SK-OV-3 ovarian): > 100 µM
- TGI (PC-3 prostate): > 100 µM
- TGI (RXF 393 renal): > 100 µM
- TGI (HS 578T breast): > 100 µM
- TGI (HOP-92 NSCLC): > 100 µM
- TGI (OVCAR-8 ovarian): > 100 µM
- TGI (HCC-2998 colon): 31.3 µM
- TGI (M14 melanoma): > 100 µM
- TGI (MDA-MB-435): > 100 µM
- TGI (DU-145 prostate): > 100 µM
- TGI (SK-MEL-28 melanoma): > 100 µM
- TGI (NCI/ADR-RES ovarian): > 100 µM
- TGI (LOX IMVI melanoma): > 100 µM
- TGI (RPMI-8226 leukemia): 45.8 µM
- TGI (SNB-75 CNS): > 100 µM
- TGI (NCI-H23 lung): > 100 µM
- TGI (NCI-H460 lung): > 100 µM
- TGI (MDA-N): > 100 µM
- TGI (T-47D breast): > 100 µM
- TGI (UACC-62 melanoma): > 100 µM
- TGI (SW-620 colon): > 100 µM
- TGI (OVCAR-3 ovarian): > 100 µM
- TGI (COLO 205 colon): 99.6 µM
- TGI (NCI-H226 lung): > 100 µM
- TGI (SF-539 CNS): > 100 µM
- TGI (OVCAR-4 ovarian): > 100 µM
- TGI (SF-268 CNS): > 100 µM
- TGI (HCT-15 colon): > 100 µM
- TGI (SK-MEL-2 melanoma): > 100 µM
- TGI (UACC-257 melanoma): > 100 µM
- TGI (NCI-H522 lung): > 100 µM
- TGI (HT29 colon): > 100 µM
- TGI (786-0 renal): > 100 µM
- TGI (U251 CNS): > 100 µM
- TGI (MOLT-4 leukemia): 52.2 µM
- TGI (EKVX NSCLC): > 100 µM
- TGI (SNB-19 CNS): > 100 µM
- TGI (IGROV1 ovarian): > 100 µM
- TGI (MDA-MB-231 breast): > 100 µM
- TGI (HOP-62 NSCLC): > 100 µM
- TGI (KM12 colon): > 100 µM
- TGI (ACHN renal): > 100 µM
- TGI (BT-549 breast): > 100 µM
- TGI (SF-295 CNS): > 100 µM
- TGI (HCT-116 colon): > 100 µM
- TGI (A549 NSCLC): > 100 µM

From PubChem BioAssay (NCI)
